The results in this text go back to patent US10829495B2, “Thieno-pyrimidine derivatives and uses thereof” (ZHEJIANG JIANFENG-YIEN BIOTECHNOLOGY CO., LTD., priority 2015, dated 2020).

The structures appear in SMILES notation.

The target in one test is EGFR T790M (Homo sapiens, UniProt P00533, T790M). Kind of test: EGFR enzyme assay. The class given is biochemical. The note with it: T790M mutant. How it is done: The following TABLE II lists compounds representative of the invention and their activity in EGFR assays. In these assays, the following grading was used: A: <0.1 μM; B: 0.1-10 μM.
The test system of a further test is NCI-H1975 cells. Kind of test: Efficacy studies in tumor bearing mice (NCI-H1975 xenograft). The class given is in vivo. As to conditions: female nu/nu mice, subcutaneous NCI-H1975 tumors, orally at 40 mg/kg daily. The protocol: 2. Efficacy Studies in Tumor Bearing Mice:
Female nu/nu mice were implanted with 1×10^7 NCI-H1975 cells in 50% Matrigel subcutaneously in the flank. Tumors were pair matched with a group size of 10 mice. Test compound was administrated orally at 40 mg/kg daily.

Chain of EGFR T790M (P00533 25-1210 T790M): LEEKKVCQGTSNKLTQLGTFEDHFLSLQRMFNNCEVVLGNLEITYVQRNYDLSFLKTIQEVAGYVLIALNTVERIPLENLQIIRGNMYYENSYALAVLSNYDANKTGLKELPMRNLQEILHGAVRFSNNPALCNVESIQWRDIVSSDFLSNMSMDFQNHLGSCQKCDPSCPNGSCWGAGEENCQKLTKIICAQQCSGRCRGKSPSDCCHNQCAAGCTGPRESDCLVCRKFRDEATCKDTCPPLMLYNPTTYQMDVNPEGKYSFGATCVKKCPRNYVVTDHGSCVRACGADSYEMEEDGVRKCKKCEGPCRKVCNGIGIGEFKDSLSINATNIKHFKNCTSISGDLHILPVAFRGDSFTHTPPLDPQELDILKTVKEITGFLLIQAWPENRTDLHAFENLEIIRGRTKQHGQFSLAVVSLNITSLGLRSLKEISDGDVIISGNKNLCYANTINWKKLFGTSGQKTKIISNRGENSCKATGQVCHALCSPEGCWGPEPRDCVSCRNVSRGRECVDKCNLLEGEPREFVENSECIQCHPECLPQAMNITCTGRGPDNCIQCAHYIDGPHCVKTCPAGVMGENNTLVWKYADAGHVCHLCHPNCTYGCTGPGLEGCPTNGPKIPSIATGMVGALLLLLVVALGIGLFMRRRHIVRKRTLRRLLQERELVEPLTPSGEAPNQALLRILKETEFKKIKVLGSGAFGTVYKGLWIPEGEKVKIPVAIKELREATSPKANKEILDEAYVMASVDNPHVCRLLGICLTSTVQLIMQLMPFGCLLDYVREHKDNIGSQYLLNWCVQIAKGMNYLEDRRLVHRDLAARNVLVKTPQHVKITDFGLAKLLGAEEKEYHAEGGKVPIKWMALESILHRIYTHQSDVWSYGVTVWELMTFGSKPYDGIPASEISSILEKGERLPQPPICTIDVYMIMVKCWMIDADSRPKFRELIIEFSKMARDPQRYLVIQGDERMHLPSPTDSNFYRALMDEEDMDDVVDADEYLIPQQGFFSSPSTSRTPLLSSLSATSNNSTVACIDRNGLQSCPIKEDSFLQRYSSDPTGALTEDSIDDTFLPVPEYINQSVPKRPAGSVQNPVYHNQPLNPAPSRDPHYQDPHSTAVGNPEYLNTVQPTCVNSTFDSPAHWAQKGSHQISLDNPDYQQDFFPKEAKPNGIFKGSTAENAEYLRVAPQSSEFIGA

By IC50 is commonly meant the concentration needed to halve the response being measured. On EGFR T790M, `C=CC(=O)Nc1cc(Nc2nc(-c3cn(C)c4cc(C)ccc34)c3sccc3n2)c(OC)cc1N(C)CCN(C)C` [Compound 8, N-[2-[2-(dimethylamino)ethyl-methyl-amino]-5-[[4-(1,6-dimethylindol-3-yl)thieno[3,2-d]pyrimidin-2-yl]amino]-4-methoxy-phenyl]prop-2-enamide] gave an IC50 of less than 0.1 µM. `C=CC(=O)Nc1cc(Nc2nc(-c3cn(CC)c4ccccc34)c3sccc3n2)c(OC)cc1N(C)CCN(C)C` [Compound 2, N-[2-[2-(dimethylamino)ethyl-methyl-amino]-5-[[4-(1-ethylindol-3-yl)thieno[3,2-d]pyrimidin-2-yl]amino]-4-methoxy-phenyl]prop-2-enamide] showed an IC50 on EGFR T790M of less than 0.1 µM. The “Tumor growth inhibition (%)” value with NCI-H1975 cells is given as greater than 75%.

As to `C=CC(=O)Nc1cc(Nc2nc(-c3cn(C(C)C)c4ccccc34)c3sccc3n2)c(OC)cc1N(C)CCN(C)C` [Compound 3, N-[2-[2-(dimethylamino)ethyl-methyl-amino]-5-[[4-(1-isopropylindol-3-yl)thieno[3,3-d]pyrimidin-2-yl]amino]-4-methoxy-phenyl]prop-2-enamide], on EGFR T790M, the IC50 is less than 0.1 µM. `C=CC(=O)Nc1cc(Nc2nc(-c3cn(C)c4ccccc34)c3sccc3n2)c(OC)cc1N(C)CCN(C)C` [Compound 1, N-[2-[2-(dimethylamino)ethyl-methyl-amino]-4-methoxy-5-[[4-(1-methylindol-3-yl)thieno[3,2-d]pyrimidin-2-yl]amino]phenyl]prop-2-enamide] returned an IC50 against EGFR T790M of less than 0.1 µM. Also, in the test with NCI-H1975 cells, the “Tumor growth inhibition (%)” value is recorded as greater than 75%. Consider `C=CC(=O)Nc1cc(Nc2nc(-c3cn(C)c4ccc(OC)cc34)c3sccc3n2)c(OC)cc1N(C)CCN(C)C` [Compound 6, N-[2-[2-(dimethylamino)ethyl-methyl-amino]-4-methoxy-5-[[4-(5-methoxy-1-methyl-indol-3-yl)thieno[3,2-d]pyrimidin-2-yl]amino]phenyl]prop-2-enamide], for which, on EGFR T790M, the half-inhibitory concentration (IC50) is less than 0.1 µM. The same measure, in the same setting: for `C=CC(=O)Nc1cc(Nc2nc(-c3cn(C)c4ccc(C)cc34)c3sccc3n2)c(OC)cc1N(C)CCN(C)C` [Compound 5, N-[2-[2-(dimethylamino)ethyl-methyl-amino]-5-[[4-(1,5-dimethylindol-3-yl)thienol[3,2-d]pyrimidin-2-yl]amino]-4-methoxy-phenyl]prop-2-enamide] the value was less than 0.1 µM; for `C=CC(=O)Nc1cc(Nc2nc(-c3cn(C(C)(C)C)c4ccccc34)c3sccc3n2)c(OC)cc1N(C)CCN(C)C` [Compound 4, N-[5-[[4-(1-tert-butylindol-3-yl)thieno[3,2-d]pyrimidin-2-yl]amino]-2-[2-(dimethylamino)ethyl-methyl-amino]-4-methoxy-phenyl]prop-2-enamide], 0.1 to 10 µM.

Compound `C=CC(=O)Nc1cc(Nc2nc(-c3cn(C)c4cc(OC)ccc34)c3sccc3n2)c(OC)cc1N(C)CCN(C)C` [Compound 7, N-[2-[2-(dimethylamino)ethyl-methyl-amino]-4-methoxy-5-[[4-(6-methoxy-1-methyl-indol-3-yl)thieno[3,2-d]pyrimidin-2-yl]amino]phenyl]prop-2-enamide] gave an IC50 at EGFR T790M of 0.1 to 10 µM.
